Consider 24 molecules from patent US20240400553A1, “AMINE BASED MATRIPTASE 2 INHIBITORS AND USES THEREOF” (Disc Medicine, Inc., priority 2023, published 2024).

One may read the Ki as the equilibrium dissociation constant of an inhibitor or competing ligand from its target.

In one assay the target is T1, Human Recombinant Matriptase 2 (Homo sapiens, UniProt Q8IU80).
T1 construct: made in house
T1 sequence (Q8IU80 1-811): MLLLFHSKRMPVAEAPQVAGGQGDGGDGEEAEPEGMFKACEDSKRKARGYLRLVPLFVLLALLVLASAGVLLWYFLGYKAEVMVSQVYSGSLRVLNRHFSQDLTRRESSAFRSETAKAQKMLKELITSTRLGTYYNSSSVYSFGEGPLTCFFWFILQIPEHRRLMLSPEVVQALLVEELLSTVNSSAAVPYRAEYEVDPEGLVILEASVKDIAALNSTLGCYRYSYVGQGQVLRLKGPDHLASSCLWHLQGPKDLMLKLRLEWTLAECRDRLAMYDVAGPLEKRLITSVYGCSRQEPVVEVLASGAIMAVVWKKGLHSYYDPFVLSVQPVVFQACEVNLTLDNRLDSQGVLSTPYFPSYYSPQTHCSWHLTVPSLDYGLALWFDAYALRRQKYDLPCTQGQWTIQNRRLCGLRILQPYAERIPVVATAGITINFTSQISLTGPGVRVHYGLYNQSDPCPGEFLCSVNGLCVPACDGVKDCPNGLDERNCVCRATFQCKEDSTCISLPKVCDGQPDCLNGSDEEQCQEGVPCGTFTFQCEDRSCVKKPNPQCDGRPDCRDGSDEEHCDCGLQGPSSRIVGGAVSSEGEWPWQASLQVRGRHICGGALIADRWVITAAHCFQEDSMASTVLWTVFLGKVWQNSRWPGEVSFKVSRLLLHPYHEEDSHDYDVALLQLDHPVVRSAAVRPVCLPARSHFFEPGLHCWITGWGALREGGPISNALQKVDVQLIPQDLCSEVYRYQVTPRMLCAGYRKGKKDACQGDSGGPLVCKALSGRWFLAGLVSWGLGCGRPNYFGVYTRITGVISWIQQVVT
Description: Matriptase 2 inhibition, fluorescence based assay (Method I). The note with it: Table A; Ki of Matriptase-2; read-out: Mat-2 Ki. In kind it is biochemical. The essentials:
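Fluorogenic readout (Ex 360/Em 480 nm) taken 60 min after adding 62 μM Boc-Gln-Ala-Arg-AMC, following 30-min enzyme–compound preincubation at 25 °C. Conditions: 3.5 nM in-house enzyme, pH 7.5 Tris/NaCl/gelatin buffer, 1% DMSO; percent inhibition versus concentration fitted by variable-slope sigmoidal regression.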
Turning to `CN1CCC(C)(COC(=O)c2cc3ccc(CN)nc3n2Cc2cc(NS(=O)(=O)Cc3ccccc3)cc3ccccc23)CC1` [Compound 10, (1,4-dimethylpiperidin-4-yl)methyl 6-(amino-methyl)-1-{[3-(phenyl-methanesulfonamido)-naphthalen-1-yl]meth-yl}-1H-pyrrolo[2,3-b]-pyridine-2-carboxylate], the inhibition constant Ki was at most 100 nM.

On to `NCc1ccc2cc(C(=O)OCC3CCN(CC(F)F)CC3)n(Cc3cc(NS(=O)(=O)Cc4ccccc4)cc4ccccc34)c2n1` [Compound 107, [1-(2,2-difluoroethyl)-piperidin-4-yl]methyl 6-(aminomethyl)-1-{[3-(phenylmethanesulfon-amido)naphthalen-1-yl]-methyl}-1H-pyrrolo[2,3-b]pyridine-2-carboxylate], for which the Ki was in the range of 100 to 500 nM.

Take `COCCN1CCCC(COC(=O)c2cc3ccc(CN)nc3n2Cc2cc(NS(=O)(=O)Cc3c(C)cccc3C)cc3ccccc23)C1` (racemic) [Compound 193, [1-(2-methoxyethyl)-piperidin-3-yl]methyl 6-(aminomethyl)-1-({3-[(2,6-dimethylphenyl)-methanesulfonamido]-naphthalen-1-yl}meth-yl)-1H-pyrrolo[2,3-b]-pyridine-2-carboxylate]: the Ki is at most 100 nM.

As to `CNCCOC(=O)c1cc2ccc(CN)nc2n1Cc1cc(NS(=O)(=O)Cc2cccs2)cc2ccccc12` [Compound 152, 2-(methylamino)ethyl 6-(aminomethyl)-1-({3-[(thiophen-2-yl)methane-sulfonamido]naphthalen-1-yl}methyl)-1H-pyr-rolo[2,3-b]pyridine-2-carboxylate], the Ki is at most 100 nM.

For `Cc1cccc(C)c1CS(=O)(=O)Nc1cc(Cn2c(C(=O)OCC3CCN(C)CC3)cc3ccc(CN)nc32)c2ccccc2c1` [Compound 188, (1-methylpiperidin-4-yl)methyl 6-(aminometh-yl)-1-({3-[(2,6-dimethyl-phenyl)methanesulfon-amido]naphthalen-1-yl}-methyl)-1H-pyrrolo[2,3-b]pyridine-2-carboxylate], the inhibition constant Ki is at most 100 nM.

On to `NCc1ccc2cc(C(=O)OCCN3CCCCC3)n(Cc3cc(NS(=O)(=O)Cc4ccccc4)cc4ccccc34)c2n1` [Compound 65, 2-(piperidin-1-yl)ethyl 6-(aminomethyl)-1-{[3-(phenylmethanesulfon-amido)naphthalen-1-yl]-methyl}-1H-pyrrolo[2,3-b]pyridine-2-carboxylate], for which the Ki was at most 100 nM.

As for `NCc1ccc2cc(C(=O)OCCn3ccnn3)n(Cc3cc(NS(=O)(=O)Cc4ccccc4)cc4ccccc34)c2n1` [Compound 92, 2-(1H-1,2,3-triazol-1-yl-ethyl 6-(aminomethyl)-1-{[3-(phenylmethane-sulfonamido)naphthalen-1-yl]methyl}-1H-pyrrolo-[2,3-b]pyridine-2-carbox-ylate], the Ki fell in the range of 100 to 500 nM.

Turning to `Cn1cncc1COC(=O)c1cc2ccc(CN)nc2n1Cc1cc(NS(=O)(=O)Cc2ccccc2)cc2ccccc12` [Compound 20, (1-methyl-1H-imidazol-5-yl)methyl 6-(amino-methyl)-1-{[3-(phenyl-methanesulfonamido)-naphthalen-1-yl]methyl}-1H-pyrrolo[2,3-b]pyr-idine-2-carboxylate], the inhibitory constant (Ki) was at most 100 nM.

Turning to `Cn1ccnc1COC(=O)c1cc2ccc(CN)nc2n1Cc1cc(NS(=O)(=O)Cc2ccccc2)cc2ccccc12` [Compound 137, (1-methyl-1H-imidazol-2-yl)methyl 6-(amino-methyl)-1-{[3-(phenyl-methanesulfonamido)-naphthalen-1-yl]methyl}-1H-pyrrolo[2,3-b]pyr-idine-2-carboxylate], the Ki was at most 100 nM.

Take `NCc1ccc2cc(C(=O)OC[C@H]3CNCCO3)n(Cc3cc(NS(=O)(=O)Cc4ccsc4)cc4ccccc34)c2n1` [Compound 170, [(2R)-morpholin-2-yl]-methyl 6-(aminomethyl)-1-({3-[(thiophen-3-yl)-methanesulfonamido]-naphthalen-1-yl}meth-yl)-1H-pyrrolo[2,3-b]-pyridine-2-carboxylate]: the inhibitory constant (Ki) was at most 100 nM.

In the case of `CN1CCC[C@H](COC(=O)c2cc3ccc(CN)nc3n2Cc2cc(NS(=O)(=O)Cc3ccccc3)cc3ccccc23)C1` (racemic) [Compound 24, (1-methylpiperidin-3-yl)methyl 6-(amino-methyl)-1-{[3-(phenyl-methanesulfonamido)-naphthalen-1-yl]methyl}-1H-pyrrolo[2,3-b]pyr-idine-2-carboxylate], the Ki is at most 100 nM.

Turning to `CC(C)(CN)COC(=O)c1cc2ccc(CN)nc2n1Cc1cc(NS(=O)(=O)Cc2ccccc2)cc2ccccc12` [Compound 40, 3-amino-2,2-dimethyl-propyl 6-(aminomethyl)-1-{[3-(phenylmethane-sulfonamido)naphthalen-1-yl]methyl}-1H-pyrrolo-[2,3-b]pyridine-2-car-boxylate], the Ki is at most 100 nM.

Staying with this assay, now noted: Table A; Ki of Matriptase-2 given as class symbols; read-out: Mat-2 Ki.
Turning to `CN(C)CCCCS(=O)(=O)Nc1cc(Cn2c(C(=O)O)cc3ccc(CN)nc32)c2ccccc2c1` [Compound 219, 6-(aminomethyl)-1-({3-[4-(dimethylamino)-butanesulfonamido]naph-thalen-1-yl}methyl)-1H-pyrrolo[2,3-b]pyridine-2-carboxylic acid], the inhibition constant Ki is 100 to 500 nM.

For the molecule `Cn1ccnc1COC(=O)c1cc2ccc(CN)cc2n1Cc1cc(NS(=O)(=O)Cc2ccccc2)cc2ccccc12` [Compound 383, (1-methyl-1H-imidazol-2-yl)methyl 6-(amino-methyl)-1-{[3-(phenyl-methanesulfonamido)-naphthalen-1-yl]meth-yl}-1H-indole-2-carbox-ylate], the inhibition constant Ki is at most 100 nM.

With `CC(C)N(CCOC(=O)Nc1cc(Cn2c(C(=O)O)cc3ccc(CN)nc32)c2ccccc2c1)C(C)C` [Compound 338, 6-(aminomethyl)-1-({3-[({2-[bis(propan-2-yl)-amino]ethoxy}carbonyl)-amino]naphthalen-1-yl}-methyl)-1H-pyrrolo[2,3-b]pyridine-2-carboxylic acid], the Ki is 500 to 3000 nM.

Consider `Cc1oc(=O)oc1COC(=O)NCc1ccc2cc(C(=O)O)n(Cc3cc(NS(=O)(=O)Cc4ccccc4)cc4ccccc34)c2n1` [Compound 359, 6-(((((5-methyl-2-oxo-1,3-dioxol-4-yl)methoxy)carbonyl)amino)methyl)-1-((3-((phenylmethyl)sulfonamido)naphthalen-1-yl)methyl)-1H-pyrrolo[2,3-b]pyridine-2-carboxylic acid], for which the inhibition constant (Ki) was in the range of 100 to 500 nM.

For the molecule `COc1ccc2c(Cn3c(C(=O)O)cc4ccc(CN)nc43)cc(NS(=O)(=O)Cc3ccccc3)cc2c1` [Compound 361], the inhibition constant Ki is 100 to 500 nM.

Take `C[C@H]1CN(C(=O)Nc2cc(Cn3c(C(=O)O)cc4ccc(CN)nc43)c3ccccc3c2)CCN1` [Compound 305]: the inhibitory constant (Ki) fell in the range of 500 to 3000 nM.

Turning to `COCCN1CCN(C(=O)Nc2cc(Cn3c(C(=O)O)cc4ccc(CN)cc43)c3ccccc3c2)CC1` [Compound 394, 6-(aminomethyl)-1-((3-(4-(2-methoxyethyl)piperazine-1-carboxamido)naphthalen-1-yl)methyl)-1H-indole-2-carboxylic acid], the Ki lay in the range of 500 to 3000 nM.

For the molecule `NCc1ccc2cc(C(=O)O)n(Cc3cc(NS(=O)(=O)Cc4ccoc4)cc4ccccc34)c2n1` [Compound 220, 6-(aminomethyl)-1-({3-[(furan-3-yl)methane-sulfonamido]naphthalen-1-yl}methyl)-1H-pyr-rolo[2,3-b]pyridine-2-carboxylic acid], the Ki fell in the range of 100 to 500 nM.

For the molecule `CN1CCC(COC(=O)c2cc3ccc(CN)cc3n2Cc2cc(NS(=O)(=O)Cc3cccs3)cc3ccccc23)CC1` [Compound 379, (1-methylpiperidin-4-yl)-methyl 6-(aminomethyl)-1-({3-[(thiophen-2-yl)-methanesulfonamido]-naphthalen-1-yl}meth-yl)-1H-indole-2-carbox-ylate], the Ki is at most 100 nM.

Turning to `NCc1ccc2cc(C(=O)Nc3nnn[nH]3)n(Cc3cc(NS(=O)(=O)Cc4ccccc4)cc4ccccc34)c2c1` [Compound 372, 6-(aminomethyl)-1-((3-((phenylmethyl)sulfonamido)naphthalen-1-yl)methyl)-N-(1H-tetrazol-5-yl)-1H-indole-2-carboxamide], the Ki fell in the range of 100 to 500 nM.

The assay is the same for the next values; noted with them: Table B; Human Recombinant Matriptase 2, 3.5 nM enzyme, 62 μM substrate, 30 mins preincubation; read-out: Mean Ki.
For `NCc1ccc2cc(C(=O)NCc3ccc(N)cc3)n(Cc3cc(NS(=O)(=O)Cc4ccccc4)cc4ccccc34)c2n1` [Compound 2.24], the Ki is at most 100 nM.

Turning to `Cn1ccnc1CCOC(=O)c1cc2ccc(CN)nc2n1Cc1cc(NS(=O)(=O)Cc2ccsc2)cc2ccccc12` [Compound 2.29], the inhibitory constant (Ki) is at most 100 nM.
